Test results taken from patent US10681909B2, “Herbicidal triazoles” (FMC Corporation, priority 2014, dated 2020).

Tests used:
[1] = system: blackgrass; assay: Test C postemergence; format: in vivo, Alopecurus myosuroides
Method in brief: (§1)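 Plants are treated postemergence at the 1- to 4-leaf stage (2 to 18 cm), grown in sphagnum peat/vermiculite medium; preemergence treatment is applied to seed planted in loam soil with sand. Both use test chemical in a non-phytotoxic solvent mixture with surfactant.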

[2] = system: johnsongrass; assay: Test C postemergence; format: in vivo, Sorghum halepense
Method in brief: as §1

[3] = system: wheat (winter wheat); assay: Test C postemergence; format: in vivo, Triticum aestivum
Method in brief: as §1

[4] = system: foxtail, giant; assay: Test C postemergence; format: in vivo, Setaria faberii
Method in brief: as §1

[5] = system: foxtail, giant; assay: Test A postemergence; format: in vivo, Setaria faberii; details: Setaria faberi, post-emergence, 240 h, 0 to 100 scale (0 no effect, 100 complete control), approx. 10 d, read-out: Plant response rating, Foxtail, Giant
Method in brief: (§2)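 Herbicidal response was scored on plants treated pre- or postemergence with surfactant-containing, non-phytotoxic solvent formulations. Preemergence meant a directed spray onto soil (loam–sand) holding sown seed; postemergence plants were at one to two leaves.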

[6] = system: barnyardgrass; assay: Test C postemergence; format: in vivo, Echinochloa crus-galli
Method in brief: as §1

[7] = system: velvetleaf; assay: Test C postemergence; format: in vivo, Abutilon theophrasti
Method in brief: as §1

[8] = system: oilseed rape; assay: Test C postemergence; format: in vivo, Brassica napus
Method in brief: as §1

[9] = system: ducksalad; assay: Test B flooded paddy test; format: in vivo, Heteranthera limosa; details: Heteranthera limosa, 360 h, 125 g ai/ha, applied to paddy water at 2-leaf stage, visual rating after 13 to 15 d, scale 0 (no effect) to 100 (complete control), read-out: Plant response rating, Ducksalad, Flood
Method in brief: (§3)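 Pots were flooded to 3 cm above the soil at treatment, and compounds were applied directly into the paddy water. That depth was held throughout. After 13 to 15 d in a greenhouse, plants were rated visually against untreated controls.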

[10] = system: pigweed; assay: Test C postemergence; format: in vivo, Amaranthus retroflexus
Method in brief: as §1

[11] = system: barnyardgrass; assay: Test A postemergence; format: in vivo, Echinochloa crus-galli; details: Echinochloa crus-galli, post-emergence, 240 h, 0 to 100 scale (0 no effect, 100 complete control), approx. 10 d, read-out: Plant response rating, Barnyardgrass
Method in brief: as §2

[12] = system: ryegrass, Italian; assay: Test C postemergence; format: in vivo, Lolium multiflorum
Method in brief: as §1

[13] = system: nutsedge, yellow; assay: Test C postemergence; format: in vivo, Cyperus esculentus
Method in brief: as §1

[14] = system: rice; assay: Test B flooded paddy test; format: in vivo, Oryza sativa; details: Oryza sativa, 360 h, 125 g ai/ha, applied to paddy water at 2-leaf stage, visual rating after 13 to 15 d, scale 0 (no effect) to 100 (complete control), read-out: Plant response rating, Rice, Flood
Method in brief: as §3

[15] = system: ragweed; assay: Test C postemergence; format: in vivo, Ambrosia elatior
Method in brief: as §1

[16] = system: chickweed; assay: Test C postemergence; format: in vivo, Stellaria media
Method in brief: as §1

[17] = system: kochia; assay: Test C postemergence; format: in vivo, Kochia scoparia
Method in brief: as §1

[18] = system: oat, wild; assay: Test C postemergence; format: in vivo, Avena fatua
Method in brief: as §1

[19] = system: corn; assay: Test A postemergence; format: in vivo, Zea mays; details: Zea mays, post-emergence, 240 h, 0 to 100 scale (0 no effect, 100 complete control), approx. 10 d
Method in brief: as §2

[20] = system: pigweed; assay: Test A preemergence; format: in vivo, Amaranthus retroflexus; details: Amaranthus retroflexus, pre-emergence, 240 h, 0 to 100 scale (0 no effect, 100 complete control), read-out: Plant response rating, Pigweed
Method in brief: as §2

## CCOc1nc(-c2ccc(F)cc2)nn1Cc1ccnc(C(F)(F)F)c1 [Compound 8, 4-[[5-ethoxy-3-(4-fluorophenyl)-1H-1,2,4-triazol-1-yl]methyl]-2-(trifluoromethyl)pyridine]
[1]; 31 g ai/ha
  Plant response rating (scale of 0 to 100 where 0 is no effect and 100 is complete control): 50
[1]; 62 g ai/ha
  Plant response rating (scale of 0 to 100 where 0 is no effect and 100 is complete control): 40
[1]; 125 g ai/ha
  Plant response rating (scale of 0 to 100 where 0 is no effect and 100 is complete control): 55
[1]; 250 g ai/ha
  Plant response rating (scale of 0 to 100 where 0 is no effect and 100 is complete control): 75
[2]; 31 g ai/ha
  Plant response rating (scale of 0 to 100 where 0 is no effect and 100 is complete control): 5
[2]; 62 g ai/ha
  Plant response rating (scale of 0 to 100 where 0 is no effect and 100 is complete control): 35
[2]; 125 g ai/ha
  Plant response rating (scale of 0 to 100 where 0 is no effect and 100 is complete control): 30
[2]; 250 g ai/ha
  Plant response rating (scale of 0 to 100 where 0 is no effect and 100 is complete control): 40
[3]; 31 g ai/ha
  Plant response rating (scale of 0 to 100 where 0 is no effect and 100 is complete control): 30
[3]; 62 g ai/ha
  Plant response rating (scale of 0 to 100 where 0 is no effect and 100 is complete control): 35
[3]; 125 g ai/ha
  Plant response rating (scale of 0 to 100 where 0 is no effect and 100 is complete control): 30
[3]; 250 g ai/ha
  Plant response rating (scale of 0 to 100 where 0 is no effect and 100 is complete control): 40
[4]; 31 g ai/ha
  Plant response rating (scale of 0 to 100 where 0 is no effect and 100 is complete control): 20
[4]; 62 g ai/ha
  Plant response rating (scale of 0 to 100 where 0 is no effect and 100 is complete control): 40
[4]; 125 g ai/ha
  Plant response rating (scale of 0 to 100 where 0 is no effect and 100 is complete control): 55
[4]; 250 g ai/ha
  Plant response rating (scale of 0 to 100 where 0 is no effect and 100 is complete control): 85
[5]; 125 g ai/ha
  pest or weed control at 125 g/ha: 100%
[5]; 500 g ai/ha
  pest or weed control at 500 g/ha: 100%
[6]; 31 g ai/ha
  Plant response rating (scale of 0 to 100 where 0 is no effect and 100 is complete control): 10
[6]; 62 g ai/ha
  Plant response rating (scale of 0 to 100 where 0 is no effect and 100 is complete control): 20
[6]; 125 g ai/ha
  Plant response rating (scale of 0 to 100 where 0 is no effect and 100 is complete control): 40
[6]; 250 g ai/ha
  Plant response rating (scale of 0 to 100 where 0 is no effect and 100 is complete control): 75
[7]; 31 g ai/ha
  Plant response rating (scale of 0 to 100 where 0 is no effect and 100 is complete control): 50
[7]; 62 g ai/ha
  Plant response rating (scale of 0 to 100 where 0 is no effect and 100 is complete control): 70
[7]; 125 g ai/ha
  Plant response rating (scale of 0 to 100 where 0 is no effect and 100 is complete control): 90
[7]; 250 g ai/ha
  Plant response rating (scale of 0 to 100 where 0 is no effect and 100 is complete control): 90
[8]; Oilsee Rape, 250 g ai/ha
  Plant response rating (scale of 0 to 100 where 0 is no effect and 100 is complete control): 95
[8]; Oilseed Rape, 31 g ai/ha
  Plant response rating (scale of 0 to 100 where 0 is no effect and 100 is complete control): 90
[8]; Oilseed Rape, 62 g ai/ha
  Plant response rating (scale of 0 to 100 where 0 is no effect and 100 is complete control): 95
[8]; Oilseed Rape, 125 g ai/ha
  Plant response rating (scale of 0 to 100 where 0 is no effect and 100 is complete control): 95
[9]
  pest or weed control at 125 g/ha: 85%
[10]; 31 g ai/ha
  Plant response rating (scale of 0 to 100 where 0 is no effect and 100 is complete control): 95
[10]; 62 g ai/ha
  Plant response rating (scale of 0 to 100 where 0 is no effect and 100 is complete control): 95
[10]; 125 g ai/ha
  Plant response rating (scale of 0 to 100 where 0 is no effect and 100 is complete control): 98
[10]; 250 g ai/ha
  Plant response rating (scale of 0 to 100 where 0 is no effect and 100 is complete control): 98
[11]; 125 g ai/ha
  pest or weed control at 125 g/ha: 100%
[11]; 500 g ai/ha
  pest or weed control at 500 g/ha: 100%
[12]; 31 g ai/ha
  Plant response rating (scale of 0 to 100 where 0 is no effect and 100 is complete control): 30
[12]; 62 g ai/ha
  Plant response rating (scale of 0 to 100 where 0 is no effect and 100 is complete control): 35
[12]; 125 g ai/ha
  Plant response rating (scale of 0 to 100 where 0 is no effect and 100 is complete control): 35
[12]; 250 g ai/ha
  Plant response rating (scale of 0 to 100 where 0 is no effect and 100 is complete control): 50
[13]; 31 g ai/ha
  Plant response rating (scale of 0 to 100 where 0 is no effect and 100 is complete control): 5
[13]; 62 g ai/ha
  Plant response rating (scale of 0 to 100 where 0 is no effect and 100 is complete control): 10
[13]; 125 g ai/ha
  Plant response rating (scale of 0 to 100 where 0 is no effect and 100 is complete control): 10
[13]; 250 g ai/ha
  Plant response rating (scale of 0 to 100 where 0 is no effect and 100 is complete control): 10
[14]
  plant injury at 125 g/ha: 50%
[15]; 31 g ai/ha
  Plant response rating (scale of 0 to 100 where 0 is no effect and 100 is complete control): 45
[15]; 62 g ai/ha
  Plant response rating (scale of 0 to 100 where 0 is no effect and 100 is complete control): 50
[15]; 125 g ai/ha
  Plant response rating (scale of 0 to 100 where 0 is no effect and 100 is complete control): 70
[15]; 250 g ai/ha
  Plant response rating (scale of 0 to 100 where 0 is no effect and 100 is complete control): 80
[16]; 31 g ai/ha
  Plant response rating (scale of 0 to 100 where 0 is no effect and 100 is complete control): 85
[16]; 62 g ai/ha
  Plant response rating (scale of 0 to 100 where 0 is no effect and 100 is complete control): 98
[16]; 125 g ai/ha
  Plant response rating (scale of 0 to 100 where 0 is no effect and 100 is complete control): 98
[16]; 250 g ai/ha
  Plant response rating (scale of 0 to 100 where 0 is no effect and 100 is complete control): 98
[17]; 31 g ai/ha
  Plant response rating (scale of 0 to 100 where 0 is no effect and 100 is complete control): 95
[17]; 62 g ai/ha
  Plant response rating (scale of 0 to 100 where 0 is no effect and 100 is complete control): 95
[17]; 125 g ai/ha
  Plant response rating (scale of 0 to 100 where 0 is no effect and 100 is complete control): 95
[17]; 250 g ai/ha
  Plant response rating (scale of 0 to 100 where 0 is no effect and 100 is complete control): 95
[18]; 31 g ai/ha
  Plant response rating (scale of 0 to 100 where 0 is no effect and 100 is complete control): 45
[18]; 62 g ai/ha
  Plant response rating (scale of 0 to 100 where 0 is no effect and 100 is complete control): 50
[18]; 125 g ai/ha
  Plant response rating (scale of 0 to 100 where 0 is no effect and 100 is complete control): 35
[18]; 250 g ai/ha
  Plant response rating (scale of 0 to 100 where 0 is no effect and 100 is complete control): 45
[19]; 125 g ai/ha
  Corn plant response rating (crop injury, 0 = no effect, 100 = complete kill) at 125 g/ha: 50%
[19]; 500 g ai/ha
  Corn plant response rating (crop injury, 0 = no effect, 100 = complete kill) at 500 g/ha: 90%
[20]; 125 g ai/ha
  pest or weed control at 125 g/ha: 100%
[20]; 500 g ai/ha, approx. 10 d
  pest or weed control at 500 g/ha: 100%
